Where two headings read alike, the source gives them in different places.
Key:
[1] = test system: J4/JFH-1 (GT1b/2a HCV); test: Inhibition of infectious virus release from Huh7 cells transfected with J4/JFH-1 RNA (focus forming assay); assay type: cell-based, hepatitis C virus
Description: (§1) Figure 4 Selection of novel, structurally diverse p7 inhibitors. In silico screening using p7 channel models as a template derived a range of Lipinski-compliant potential inhibitors of the p7 channel complex and the top 30 were selected for testing as proof-of-principle. (A) Liposome dye release assay showing endpoint values compounds with activity against wild-type p7 at 250 nM that were subsequently selected for cell culture studies. Results are the average of two separate experiments with each condition in duplicate and are expressed as a percentage of the untreated protein value following baseline subtraction (liposomes alone). […] (B) Inhibition of infectious virus release from Huh7 cells transfected with J4/JFH-1 RNA using novel compounds (400 nM). Selected compounds show minimal effect on intracellular infectivity, replicon replication and have no toxic effects (see Supporting Fig. 5 and Table 2). […] (C) Structures of selected initial hit compounds. (D) Predicted docking poses of rimantadine novel compounds at the allosteric binding site (calculated in Glide, Schrodinger). Key interacting residues are highlighted.
Figure 6 Effects of novel inhibitors against multiple HCV genotypes. […] Results are representative of two independent experiments and are the average of triplicate wells. Error bars represent standard deviations. […]

[2] = target: T1, genotype 1b p7 (Hepatitis C virus genotype 1b, UniProt O92972); test: Liposome carboxyfluorescein dye release assay for p7 channel activity; assay type: biochemical; settings: genotype 1b p7 in vitro, prototype control, read-out: median inhibitory concentration [IC50]
T1 construct: selected for testing against genotype 1b p7 in vitro; made in house; host or cells: Escherichia coli BL21(DE3)
T1 sequence (O92972 747-809): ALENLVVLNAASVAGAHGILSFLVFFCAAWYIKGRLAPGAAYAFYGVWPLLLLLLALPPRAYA
Description: Liposome carboxyfluorescein release assays were conducted as described previously.[13],[15],[28]
as §1

[3] = test system: Leu20Phe J4/JFH-1; test: HCV spread following infection at low M.O.I., NS5A foci counted; assay type: cell-based, hepatitis C virus; settings: low multiplicity infection
Excerpt: Figure 5 Specificity of novel p7 inhibitors. Screening lead hits LDS19 and 21 were examined for specificity against wild-type and rimantadine resistant HCV. (A) Titration of LDS 19 and 21 against Huh7 cells transfected with both wild-type (diamonds) and Leu20Phe (squares) J4/JFH-1 RNA, showing effects on released infectivity. Graph plots the average released titers from duplicate wells from at least two separate experiments, normalized to the 100% untreated value. Error bars represent normalized percent error of the mean between experiments (*P < 0.05). (B) Effects of p7 inhibitors on HCV spread following infection at low M.O.I (0.0001 FFU/cell). Huh7 cells were infected in triplicate overnight with wild-type (black) and Leu20Phe (white) J4/JFH-1 and then media replaced after extensive washing with that containing inhibitors. Fluorescent NS5A foci were counted at 72 hours postinfection. […] Error bars represent normalized percent error of the mean (*P < 0.05, **P < 0.01). […] Results are the average of two separate experiments with duplicate wells and error bars are normalized percent error of the mean between experiments.

[4] = test system: J4/JFH-1(L20F); settings: subcytotoxic concentrations; cited from earlier work

| Compound | IC50 ([1]; J4/JFH-1 RNA transfected Huh7, prototype shown for comparison, read-out: ∼IC50, infectious virus release) [µM] | IC50 [2] [µM] | sensitivity of Leu20Phe HCV spread to compound [3] | effect on Leu20Phe infectious virion production [4] | IC50 ([1]; Hepatitis C virus, GT1B, Huh-7, read-out: ∼IC50, infectious virus release) [µM] |
| --- | --- | --- | --- | --- | --- |
| CCCCCCCCCN1C[C@H](O)[C@@H](O)[C@H](O)[C@H]1CO [NN-DNJ] | ~20 |  |  |  |  |
| CC(N)C12CC3CC(CC(C3)C1)C2 (centres unmarked) [rimantadine] |  | ~40 | insensitive | ineffective | ~40 |

Reference: article PMC4298801, “Structure-Guided Design Affirms Inhibitors of Hepatitis C Virus p7 as a Viable Class of Antivirals Targeting Virion Release” (Hepatology (Baltimore, Md.), 2013)
